Measured values: the NIST ThermoML archive (doi:10.1016/j.fluid.2016.09.021)

Settings: Liquid, Vibrating tube method

CCCCCCCCCCCC [dodecane]
mass density [kg/m3]
Settings | 293 K | 313 K | 333 K | 353 K | 373 K | 393 K | 413 K | 433 K | 448 K | 468 K
2100 kPa | 752.3 | 737.7 | 722.8 | 708.1 | 693.2 | 678.1 | 662.8 | 646.8 | 634.6 | 617.8
3100 kPa | 752.9 | 738.5 | 723.6 | 709 | 694.3 | 679.2 | 664.2 | 648.5 | 636.7 | 619.9
4100 kPa | 753.6 | 739.2 | 724.5 | 710 | 695.3 | 680.4 | 665.6 | 650 | 638.2 | 622
5000 kPa | 754.2 | 739.9 | 725.3 | 710.9 | 696.3 | 681.6 | 666.9 | 651.6 | 640 | 624.1
10100 kPa | 757.5 | 743.4 | 729.4 | 715.6 | 701.5 | 687.5 | 673.7 | 659.5 | 648.5 | 634.1
20000 kPa | 763.5 | 750.1 | 736.6 | 723.9 | 710.8 | 697.8 | 685.1 | 672 | 662.4 | 649.5
30000 kPa | 769 | 756.3 | 743.4 | 731.3 | 718.7 | 706.6 | 694.9 | 682.8 | 674 | 661.8
40000 kPa | 774.3 | 761.8 | 749.6 | 737.7 | 726 | 714.7 | 703.6 | 692.1 | 684 | 672.8
50000 kPa | 779 | 767.1 | 755.3 | 744.1 | 733.1 | 722.2 | 711.4 | 700.6 | 692.9 | 682.6
60000 kPa | 783.8 | 772.1 | 760.8 | 750.1 | 739.4 | 728.7 | 718.7 | 708.3 | 701 | 691
69900 kPa | 788 | 777 | 766 | 755.6 | 745.2 | 735.1 | 725.4 | 715.6 | 708.3 | 698.9
79900 kPa | 792.5 | 781.6 | 770.9 | 760.7 | 750.7 | 741.1 | 731.7 | 722.1 | 715.3 | 706.3
89900 kPa | 796.7 | 786.1 | 775.7 | 765.7 | 756 | 746.8 | 737.3 | 728.3 | 721.9 | 712.9
99900 kPa | 800.8 | 790.4 | 780.1 | 770.5 | 761 | 752.2 | 743.2 | 734.3 | 727.9 | 719.2
109900 kPa | 804.8 | 794.6 | 784.6 | 775.1 | 765.9 | 757.2 | 748.5 | 739.8 | 733.5 | 725.1
119900 kPa | 808.7 | 798.7 | 788.8 | 779.6 | 770.6 | 762 | 753.7 | 745.1 | 739 | 731
129900 kPa | 812.4 | 802.7 | 793.2 | 784 | 775.1 | 766.8 | 758.5 | 750.3 | 744.2 | 736.3
134900 kPa | 814.4 | 804.6 | 795.1 | 786 | 777.4 | 769 | 760.9 | 752.7 | 746.7 | 738.9
137400 kPa | 815.2 | 805.4 | 796 | 787 | 778.5 | 770.2 | 762 | 753.9 | 747.9 | 740.2
